Test results taken from PubChem BioAssay (NCI).
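Five compound concentrations were applied to cells in 96-well plates for 48 hours; endpoints were derived by simple linear interpolation of the resulting dose-response curve. GI50 = concentration required for 50% inhibition of growth. TGI: concentration producing complete growth inhibition.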

What was measured:
Test in all cases: inhibition of tumour cell growth, NCI panel, 48 h
[1] = tested on: 786-0 renal
[2] = tested on: A498 renal
[3] = tested on: A549 NSCLC
[4] = tested on: ACHN renal
[5] = tested on: CCRF-CEM leukemia
[6] = tested on: COLO 205 colon
[7] = tested on: DLD-1 colon
[8] = tested on: DMS 114 small cell lung
[9] = tested on: EKVX NSCLC
[10] = tested on: HCC-2998 colon
[11] = tested on: HCT-116 colon
[12] = tested on: HCT-15 colon
[13] = tested on: HL-60(TB) leukemia
[14] = tested on: HOP-62 NSCLC
[15] = tested on: HOP-92 NSCLC
[16] = tested on: HT29 colon
[17] = tested on: IGROV1 ovarian
[18] = tested on: K-562 leukemia
[19] = tested on: KM12 colon
[20] = tested on: KM20L2 colon
[21] = tested on: LOX IMVI melanoma
[22] = tested on: LXFL 529 NSCLC
[23] = tested on: M14 melanoma
[24] = tested on: M19-MEL melanoma
[25] = tested on: MALME-3M melanoma
[26] = tested on: MOLT-4 leukemia
[27] = tested on: NCI-H23 lung
[28] = tested on: NCI-H460 lung
[29] = tested on: NCI-H522 lung
[30] = tested on: OVCAR-3 ovarian
[31] = tested on: OVCAR-4 ovarian
[32] = tested on: OVCAR-5 ovarian
[33] = tested on: OVCAR-8 ovarian
[34] = tested on: RPMI-8226 leukemia
[35] = tested on: SF-268 CNS
[36] = tested on: SF-295 CNS
[37] = tested on: SF-539 CNS
[38] = tested on: SK-MEL-2 melanoma
[39] = tested on: SK-MEL-28 melanoma
[40] = tested on: SK-MEL-5 melanoma
[41] = tested on: SK-OV-3 ovarian
[42] = tested on: SN12C renal
[43] = tested on: SNB-19 CNS
[44] = tested on: SNB-75 CNS
[45] = tested on: SNB-78 CNS
[46] = tested on: SW-620 colon
[47] = tested on: TK-10 renal
[48] = tested on: U251 CNS
[49] = tested on: UACC-257 melanoma
[50] = tested on: UACC-62 melanoma
[51] = tested on: UO-31 renal
[52] = tested on: CAKI-1 renal
[53] = tested on: DMS 273 small cell lung
[54] = tested on: HOP-18 NSCLC
[55] = tested on: SR leukemia

Compound: NCCN.O=C([O-])C(=O)[O-].O=C([O-])C(=O)[O-].[Co+3].[K+]
- GI50 [1]: > 100 µM
- TGI [1]: > 100 µM
- GI50 [2]: > 100 µM
- TGI [2]: > 100 µM
- GI50 [3]: > 100 µM
- TGI [3]: > 100 µM
- GI50 [4]: > 100 µM
- TGI [4]: > 100 µM
- GI50 [5]: > 100 µM
- TGI [5]: > 100 µM
- GI50 [6]: > 100 µM
- TGI [6]: > 100 µM
- GI50 [7]: > 100 µM
- TGI [7]: > 100 µM
- GI50 [8]: > 100 µM
- TGI [8]: > 100 µM
- GI50 [9]: > 100 µM
- TGI [9]: > 100 µM
- GI50 [10]: > 100 µM
- TGI [10]: > 100 µM
- GI50 [11]: > 100 µM
- TGI [11]: > 100 µM
- GI50 [12]: > 100 µM
- TGI [12]: > 100 µM
- GI50 [13]: > 100 µM
- TGI [13]: > 100 µM
- GI50 [14]: > 100 µM
- TGI [14]: > 100 µM
- GI50 [15]: > 100 µM
- TGI [15]: > 100 µM
- GI50 [16]: > 100 µM
- TGI [16]: > 100 µM
- GI50 [17]: > 100 µM
- TGI [17]: > 100 µM
- GI50 [18]: > 100 µM
- TGI [18]: > 100 µM
- GI50 [19]: > 100 µM
- TGI [19]: > 100 µM
- GI50 [20]: > 100 µM
- TGI [20]: > 100 µM
- GI50 [21]: > 100 µM
- TGI [21]: > 100 µM
- GI50 [22]: > 100 µM
- TGI [22]: > 100 µM
- GI50 [23]: > 100 µM
- TGI [23]: > 100 µM
- GI50 [24]: > 100 µM
- TGI [24]: > 100 µM
- GI50 [25]: > 100 µM
- TGI [25]: > 100 µM
- GI50 [26]: > 100 µM
- TGI [26]: > 100 µM
- GI50 [27]: > 100 µM
- TGI [27]: > 100 µM
- GI50 [28]: > 100 µM
- TGI [28]: > 100 µM
- GI50 [29]: 92.4 µM
- TGI [29]: > 100 µM
- GI50 [30]: > 100 µM
- TGI [30]: > 100 µM
- GI50 [31]: > 100 µM
- TGI [31]: > 100 µM
- GI50 [32]: > 100 µM
- TGI [32]: > 100 µM
- GI50 [33]: > 100 µM
- TGI [33]: > 100 µM
- GI50 [34]: > 100 µM
- TGI [34]: > 100 µM
- GI50 [35]: > 100 µM
- TGI [35]: > 100 µM
- GI50 [36]: > 100 µM
- TGI [36]: > 100 µM
- GI50 [37]: > 100 µM
- TGI [37]: > 100 µM
- GI50 [38]: > 100 µM
- TGI [38]: > 100 µM
- GI50 [39]: > 100 µM
- TGI [39]: > 100 µM
- GI50 [40]: > 100 µM
- TGI [40]: > 100 µM
- GI50 [41]: > 100 µM
- TGI [41]: > 100 µM
- GI50 [42]: > 100 µM
- TGI [42]: > 100 µM
- GI50 [43]: > 100 µM
- TGI [43]: > 100 µM
- GI50 [44]: > 100 µM
- TGI [44]: > 100 µM
- GI50 [45]: > 100 µM
- TGI [45]: > 100 µM
- GI50 [46]: > 100 µM
- TGI [46]: > 100 µM
- GI50 [47]: > 100 µM
- TGI [47]: > 100 µM
- GI50 [48]: > 100 µM
- TGI [48]: > 100 µM
- GI50 [49]: > 100 µM
- TGI [49]: > 100 µM
- GI50 [50]: > 100 µM
- TGI [50]: > 100 µM
- GI50 [51]: > 100 µM
- TGI [51]: > 100 µM

Compound: NC1=NS(=O)(=O)Nc2nc(-c3ccc(Cl)cc3)[nH]c21
- TGI [1]: > 100 µM
- TGI [2]: > 100 µM
- TGI [3]: > 100 µM
- TGI [4]: > 100 µM
- TGI [52]: > 100 µM
- TGI [5]: > 100 µM
- TGI [6]: > 100 µM
- TGI [7]: > 100 µM
- TGI [8]: > 100 µM
- TGI [53]: > 100 µM
- TGI [10]: > 100 µM
- TGI [11]: > 100 µM
- TGI [12]: > 100 µM
- TGI [13]: > 100 µM
- TGI [54]: > 100 µM
- TGI [14]: > 100 µM
- TGI [15]: > 100 µM
- TGI [16]: > 100 µM
- TGI [17]: > 100 µM
- TGI [18]: > 100 µM
- TGI [19]: > 100 µM
- TGI [20]: > 100 µM
- TGI [21]: > 100 µM
- TGI [22]: > 100 µM
- TGI [23]: > 100 µM
- TGI [24]: > 100 µM
- TGI [25]: > 100 µM
- TGI [26]: > 100 µM
- TGI [27]: > 100 µM
- TGI [28]: > 100 µM
- TGI [29]: > 100 µM
- TGI [30]: > 100 µM
- TGI [31]: > 100 µM
- TGI [32]: > 100 µM
- TGI [33]: > 100 µM
- TGI [34]: > 100 µM
- TGI [35]: > 100 µM
- TGI [36]: > 100 µM
- TGI [37]: > 100 µM
- TGI [38]: > 100 µM
- TGI [39]: > 100 µM
- TGI [40]: > 100 µM
- TGI [41]: > 100 µM
- TGI [42]: > 100 µM
- TGI [43]: > 100 µM
- TGI [44]: > 100 µM
- TGI [55]: > 100 µM
- TGI [46]: > 100 µM
- TGI [47]: > 100 µM
- TGI [48]: > 100 µM
- TGI [50]: > 100 µM
- TGI [51]: > 100 µM
